According to US20260285801A1, “LIPID NANOPARTICLE FOR TARGETED DELIVERY OF THERAPEUTIC PAYLOADS” (Trustees of Tufts College, priority 2023, published 2026):

Key:
[1] = LNP size and polydispersity index by dynamic light scattering (Zetasizer Nano ZS); assay type: physicochemical; settings: LNP with mRNA payload formulated with the lipid; active lipid/Cholesterol/DOPC/DMG-PEG 16.8/4.0/2.0/1.0; Lipids:mRNA 25:1; PBS pH 7.4, 25° C.
Description: (§1) RNA working solutions (0.134 mg/ml) were prepared in 25 mM sodium acetate buffer using DNase/RNase-free distilled water. Lipid stock solutions (10 mg/mL) were freshly prepared with active lipids or helper lipids (e.g., cholesterol, DOPC or DSPC, or ALC-0159) in ethanol. Reagents were mixed by vortexing and sonicating until the lipids were completely dissolved. A lipid mixture was first prepared by combining the active lipids (e.g., ionizable lipids of the present disclosure) and helper lipids into one vial and mixing thoroughly. Lipid nanoparticles were then formed by mixing the RNA working solution (0.134 mg/ml) and the lipid mixture at 3:1 volume ratio, either manually (for smaller scale) or by Precision Igniter microfluidic device. The formulation solution was transferred into a 300 kDa MWCO Float-A-Lyzer G2 Dialysis Device and dialyzed against at least 1000-folds volume of 50 mM Tris buffer overnight at 4° C. The LNP solution was sterilized with a 0.22 μm filter.
(§2) For LNP characterization, size and polydispersity index (PDI) were determined by dynamic light scattering using a Zetasizer Nano ZS. 10 μL of LNP suspension was transferred to a low-volume cuvette containing 900 μL of Ca^2+ and Mg^2+ free PBS at pH 7.4. Refractive index was set to […] and temperature was set to 25° C. Encapsulation efficiency (EE %) was measured using a fluorescence plate-based assay employing the Ribogreen reagent (Invitrogen) as per PNI Ribogreen assay protocol 16. This assay measures the quantity of mRNA in samples with intact LNPs to determine the quantity of unencapsulated RNA as well as in LNP samples disrupted by triton X-100 to measure the total RNA. EE % is calculated as the difference between the total RNA and the unencapsulated RNA divided by the total RNA.

[2] = Encapsulation efficiency and mRNA quantity by Ribogreen fluorescence plate assay; assay type: physicochemical; settings: LNP with mRNA payload formulated with the lipid, 16.8/4.0/2.0/1.0, Lipids:mRNA 25:1; for EE %: (total RNA - unencapsulated RNA)/total RNA
Description: as §1, §2

| Structure (SMILES) | PDI [1] | Size (nm) [1] [nm] | [mRNA] Ug/ml [2] [Ug/ml] | EE % [2] [%] |
| --- | --- | --- | --- | --- |
| CC(C)CCCCCCCCSSCCOC(=O)CCN(CCCN(C)CCCN(CCC(=O)OCCSSCCCCCCCCC(C)C)CCC(=O)OCCSSCCCCCCCCC(C)C)CCC(=O)OCCSSCCCCCCCCC(C)C [Lipid L0813] | 0.107 | 183 | 96.7 | 84 |
| CCCCCCC(CCCC)COC(=O)OCCOC(=O)CCN(CCCN(C)CCCN(CCC(=O)OCCOC(=O)OCC(CCCC)CCCCCC)CCC(=O)OCCOC(=O)OCC(CCCC)CCCCCC)CCC(=O)OCCOC(=O)OCC(CCCC)CCCCCC (centres unmarked) [Lipid L0088] | 0.087 | 153.9 | 69.7 | 85.2 |
| CC(C)CCCCCCCCSSCCOC(=O)CCN(CCCN(C)CCCN(CCC(=O)OCCSSCCCCCCCCC(C)C)CCC(=O)OCCSSCCCCCCCCC(C)C)CCC(=O)OCCSSCCCCCCCCC(C)C [Lipid L0814] | 0.093 | 178.8 | 90.2 | 70 |
| CCCCCCC(CCCC)CNC(=O)NCCNC(=O)CCN(CCCN(C)CCCN(CCC(=O)NCCNC(=O)NCC(CCCC)CCCCCC)CCC(=O)NCCNC(=O)NCC(CCCC)CCCCCC)CCC(=O)NCCNC(=O)NCC(CCCC)CCCCCC (centres unmarked) [Lipid L0775] | 0.863 | 5911 |  |  |
| CCC(C)CCCCCOC(=O)CCN(CCC(=O)OCCCCCC(C)CC)CCN(C)CCN(CCC(=O)OCCCCCC(C)CC)CCC(=O)OCCCCCC(C)CC (centres unmarked) [Lipid L0631] | 0.105 | 122.2 | 88.88 | 45.59 |
| CCC(C)CCCCCOC(=O)CCN(CCCN(C)CCCN(CCC(=O)OCCCCCC(C)CC)CCC(=O)OCCCCCC(C)CC)CCC(=O)OCCCCCC(C)CC (centres unmarked) [Lipid L0630] | 0.102 | 121.9 | 74.99 | 60.74 |
| CCCCCCCCCC(CC)OC(=O)OCCOC(=O)CCN(CCCN(C)CCCN(CCC(=O)OCCOC(=O)OC(CC)CCCCCCCCC)CCC(=O)OCCOC(=O)OC(CC)CCCCCCCCC)CCC(=O)OCCOC(=O)OC(CC)CCCCCCCCC (centres unmarked) [Lipid L0660] | 0.11 | 122.2 | 71 | 97 |
| CCCCCCC(CCCC)COC(=O)OCCOC(=O)CCN(CCCN(CCCN(CCC(=O)OCCOC(=O)OCC(CCCC)CCCCCC)CCC(=O)OCCOC(=O)OCC(CCCC)CCCCCC)CCCN1CCN(C)CC1)CCC(=O)OCCOC(=O)OCC(CCCC)CCCCCC (centres unmarked) [Lipid L0674] | 0.22 | 124.4 | 71.22 | 98.92 |
| CCCCCCCCC(CCC)OC(=O)OCCOC(=O)CCN(CCCN(C)CCCN(CCC(=O)OCCOC(=O)OC(CCC)CCCCCCCC)CCC(=O)OCCOC(=O)OC(CCC)CCCCCCCC)CCC(=O)OCCOC(=O)OC(CCC)CCCCCCCC (centres unmarked) [Lipid L0637] | 0.34 | 186.1 | 66.8 | 94 |
| CCCCCCC(CCCC)COC(=O)OCCOC(=O)CCN(CCCN(CCCO)CCCN(CCC(=O)OCCOC(=O)OCC(CCCC)CCCCCC)CCC(=O)OCCOC(=O)OCC(CCCC)CCCCCC)CCC(=O)OCCOC(=O)OCC(CCCC)CCCCCC (centres unmarked) [Lipid L0666] | 0.26 | 246.5 | 71.9 | 96.1 |
| CC/C=C\CCCCOC(=O)CCN(CCCN(C)CCCN(CCC(=O)OCCCC/C=C\CC)CCC(=O)OCCOC(=O)OCC(CCCC)CCCCCC)CCC(=O)OCCCC/C=C\CC (centres unmarked) [Lipid L0829] | 0.13 | 98.3 | 78 | 92 |
| CC/C=C\CCCCOC(=O)CCN(CCCN(C)CCCN(CCC(=O)OCCOC(=O)OCC(CCCC)CCCCCC)CCC(=O)OCCOC(=O)OCC(CCCC)CCCCCC)CCC(=O)OCCOC(=O)OCC(CCCC)CCCCCC (centres unmarked) [Lipid L0830] | 0.105 | 125.1 | 91 | 48 |
| CCCC/C=C\CCOC(=O)CCN(CCCN(C)CCCN(CCC(=O)OCC/C=C\CCCC)CCC(=O)OCC/C=C\CCCC)CCC(=O)OCC/C=C\CCCC [Lipid L0826] | 0.082 | 141 | 95.2 | 39 |
